According to patent US20230027295A1, “FXIA INHIBITORS AND PREPARATION METHOD THEREFOR AND PHARMACEUTICAL USE THEREOF” (Shenzhen Salubris Pharmaceuticals Co., Ltd., priority 2019, published 2023):

Tests used:
Caco-2 permeability = format: in vitro ADME; settings: human
Method: Example 54: Investigation of the Caco-2 Data of the Compounds of the Present Invention
Medium: DMEM (Corning), FBS (Corning), double antibody (Solarbio), 96-well HTS transwell plate (Corning), Caco-2 cells.
Experimental method: Caco-2 cells were cultured on 96-well HTS transwell plate for 14-18 days, and the TEER value of each well was detected to ensure that the cells in each well formed a complete monolayer. Drug was added and it was incubated for 2h to detect the drug concentrations of A-B and B-A.
Data processing: PappA-B and PappB-A values were calculated: Papp=(VA×[drug]acceptor)/(Area×Time×[drug]initial, donor); Efflux Ratio was calculated: Efflux Ratio=Papp(B-A)/Papp(A-B).

[1] = Cynomolgus monkey pharmacokinetics; format: in vivo; design: AUC: concentration or dose not given beside the values
Description: Example 53: Investigation of the Pharmacokinetic Characteristics of the Compounds of the Present Invention
SD rats: male, 180-250 g, purchased from Guangdong Medical Laboratory Animal Center. Cynomolgus monkey: male, 4-6 kg, purchased from Guangzhou Chunsheng Biological Research Institute Co., Ltd. Beagle dog: male, 8-12 kg, developed in Kanglong Chemical (Ningbo) New Drug Technology Co., Ltd.
Reagents: DMSO (dimethyl sulfoxide), PEG-400 (polyethylene glycol 400), normal brine, heparin, acetonitrile, formic acid, and propranolol (internal standard) are commercially available.
Instrumentation: Thermo Fisher Scientific LC-MS (U300 UPLC, TSQ […] ULTRA triple quadrupole mass spectrometer).
The compound was weighed and dissolved in DMSO-PEG-400-physiological brine (5:60:35, v/v/v) system. After the rats/monkeys were administered intravenously or by gavage, 200 μL of venous blood was collected at 5 min (not collected when administered by gavage), 15 min, 30 min, 1 h, 2 h, 4 h, 6 h, 8 h, and 24 h in heparinized EP tubes, centrifuged at 12000 rpm for 2 min, and the plasma was frozen at −80° C. for testing. A certain amount of the test substance was precisely weighed and dissolved in DMSO to 1 mg/mL, which was used as a stock solution. An appropriate amount of compound stock solution was accurately pipetted and diluted with acetonitrile to prepare a standard series of solutions. 20 μL of each of the above standard series solutions were accurately pipetted, added with 180 μL of blank plasma, vortexed and mixed to prepare plasma samples equivalent to plasma concentrations of 1, 3, 10, 30, 100, 300, 1000, 3000 and 5000 ng/mL. Two-sample analysis was performed for each concentration to establish a standard curve. 20 μL of plasma was taken out, added with 200 μL of internal standard propranolol (5 ng/mL) in acetonitrile, vortexed and mixed. It was centrifuged at 4000 rpm for 5 min, and the supernatant was collected for LC-MS analysis. LC-MS detection conditions were as follows:
Chromatographic column: Thermo Scientific […] GOLD C-18 UPLC column, 100*2.1 mm, 1.9 μm.
Mobile phase: water (0.1% formic acid)-acetonitrile for gradient elution according to the table below.
After blood drug concentrations being detected by LC-MS, WinNonlin 6.1 software was used to calculate pharmacokinetic parameters by non-compartmental model method.

[2] = Caco-2 monolayer, 2h incubation

For COc1cn([C@@H](Cc2ccccc2)C(=O)Nc2ccc(C(=O)O)cc2)c(=O)cc1-c1cc(Cl)ccc1C(C)=O [Compound B, (S)-4-(2-(4-(2-acetyl-5-chlorophenyl)-5-methoxy-2-oxopyridinium-1(2H)-yl)-3-phenylpropanamido)benzoic acid, reference compound], the efflux ratio at 2 h (Caco-2 permeability; Caco-2, Papp(B-A)/Papp(A-B)) was 8.75, the Papp A→B at 2 h (Caco-2 permeability; [2]) was 1.55 ×10⁻⁶ cm/s and the Papp B→A at 2 h (Caco-2 permeability; [2]) was 13.6 ×10⁻⁶ cm/s. The F ([1]; ig) was 4.1%, the AUC ([1]; male, plasma, iv) was 4220 ng·h/mL and the Cmax ([1]; male, plasma, iv) was 8760 ng/mL. It also gave a Tmax ([1]; male, plasma, iv) of 0.083 h, a clearance ([1]; male, plasma, iv) of 4.1 mL/min/kg and a half-life ([1]; male, plasma, iv) of 1.2 h. It also gave a Vd ([1]; male, plasma, iv, read-out: Vss) of 0.2 L/kg, an AUC ([1]; male, plasma, po, ig) of 1490 ng·h/mL and a Cmax ([1]; male, plasma, po, ig) of 108 ng/mL. It also gave a Tmax ([1]; male, plasma, po, ig) of 2 h and a half-life ([1]; male, plasma, po, ig) of 8 h.
